“And” between values parts separate entries of the source, which are not always exact repeats. Equal entries are not always repeated.

The target in the assay is Beta-arrestin-1 (Oryctolagus cuniculus, UniProt Q95223).
Chain of Beta-arrestin-1 (Q95223 whole entry): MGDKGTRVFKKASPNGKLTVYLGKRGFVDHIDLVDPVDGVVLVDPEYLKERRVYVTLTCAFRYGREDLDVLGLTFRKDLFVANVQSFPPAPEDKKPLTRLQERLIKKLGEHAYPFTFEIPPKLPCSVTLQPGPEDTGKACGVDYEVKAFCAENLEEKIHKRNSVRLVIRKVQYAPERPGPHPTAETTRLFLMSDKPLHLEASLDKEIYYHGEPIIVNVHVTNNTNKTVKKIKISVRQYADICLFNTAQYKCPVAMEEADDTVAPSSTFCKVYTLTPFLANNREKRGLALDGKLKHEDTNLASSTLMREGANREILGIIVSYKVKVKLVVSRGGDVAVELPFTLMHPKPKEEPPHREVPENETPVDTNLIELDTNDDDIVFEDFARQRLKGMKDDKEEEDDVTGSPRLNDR
With `O=C1CCCN1CC#CCN1CCCC1` [1-[4-(2-oxo-pyrrolidin-1-yl)-but-2-ynyl]-pyrrolidinium], the Ki is 214 nM and 1560 nM.

`CC(=O)OCC[N+](C)(C)C` [2-acetoxyethyl(trimethyl)ammonium;perchlorate] had a Ki of 3230 nM.

On to `C[N+](C)(C)CCOC(N)=O` [(2-Hydroxyethyl)trimethyl ammonium chloride carbamate], for which the Ki is 1660 nM and > 10000 nM.

Source of the values: BindingDB's records for PubMed 3806397 (University of Arizona, 1987).
